Reference: US20230024442A1, “BIFUNCTIONAL COMPOUNDS FOR GRADING BTK VIA UBIQUITIN PROTEOSOME PATHWAY” (NURIX THERAPEUTICS, INC., priority 2019, published 2023)

Each compound was assayed against T1, BTK (Homo sapiens, UniProt Q06187) (assay: Cellular BTK HTRF Assay (BTK levels in Ramos cells)). Conditions: Ramos cells, 50,000 cells, incubated four hours at 37° C.; BTK levels by Cisbio Total-BTK HTRF relative to DMSO-treated cells.
T1 construct: endogenous in cells; host or cells: Ramos (ATCC CRL-1596)
T1 sequence (Q06187 whole entry): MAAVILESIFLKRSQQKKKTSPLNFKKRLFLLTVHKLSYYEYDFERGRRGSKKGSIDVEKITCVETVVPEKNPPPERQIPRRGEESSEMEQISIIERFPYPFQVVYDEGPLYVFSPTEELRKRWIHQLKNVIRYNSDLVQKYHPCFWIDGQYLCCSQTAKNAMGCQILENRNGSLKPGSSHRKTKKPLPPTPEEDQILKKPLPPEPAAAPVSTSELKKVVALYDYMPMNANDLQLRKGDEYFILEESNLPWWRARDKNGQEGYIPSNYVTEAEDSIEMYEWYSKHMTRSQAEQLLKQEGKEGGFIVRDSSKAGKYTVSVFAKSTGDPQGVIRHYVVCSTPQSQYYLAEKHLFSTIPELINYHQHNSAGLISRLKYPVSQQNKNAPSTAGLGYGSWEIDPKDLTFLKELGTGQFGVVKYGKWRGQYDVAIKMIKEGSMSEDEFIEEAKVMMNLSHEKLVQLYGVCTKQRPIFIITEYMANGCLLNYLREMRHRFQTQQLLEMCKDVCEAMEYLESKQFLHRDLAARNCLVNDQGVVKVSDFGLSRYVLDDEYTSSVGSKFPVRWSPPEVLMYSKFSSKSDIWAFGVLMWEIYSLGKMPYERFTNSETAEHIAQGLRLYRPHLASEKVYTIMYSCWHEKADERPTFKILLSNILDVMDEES
Type: cell-based
Description: Ramos (CRL-1596) cells were obtained from American Type Culture Collection and were grown in RPMI-1640 media (ATCC, 30-2001) supplemented with 10% heat-inactivated FBS (Corning Premium Fetal Bovine Serum from Fisher, MT35015CV).
Compounds of the present invention were added to 50,000 Ramos cells in round-bottom 96 well plates with a final DMSO concentration of […] and were incubated at 37° C. 5% CO2 for four hours. BTK levels were determined using Cisbio Total-BTK HTRF ([…] Time-Resolved Fluorescence) kit (63ADK064PEG) according to manufacturer's protocol. Briefly, cells were incubated in 1× supplied lysis buffer for 30 minutes. In an opaque white low volume 96 well plate (Cisbio, 66PL96005), cell lysate was combined with two different specific BTK antibodies, one conjugated with Eu^3+-Cryptate FRET donor and one conjugated with d2 FRET acceptor. Assay controls include wells containing cell lysate with only the Eu^3+-Cryptate FRET donor antibody and wells containing both HTRF antibodies and lysis buffer without cells or control lysate provided by Cisbio. HTRF ratio was calculated as (acceptor signal at 665 nm/donor signal at 620 nm)×10^4. Background HTRF levels were determined from the control well containing the donor, but no acceptor, antibody. Background HTRF levels were subtracted from all samples. Readouts were reported as HTRF levels relative to HTRF levels of DMSO-treated cells. Four-parameter non-linear regressions were performed in GraphPad Prism 7.02 to obtain DC50 values. DC50 values are provided in Table 7, wherein A<1 nM, 1 nM≤B≤10 nM, and 10 nM<C<1 μM.

| DC50 [nM] | SMILES |
| --- | --- |
| 1 to 10 | C[C@H]1CN(C(=O)C2CC3(CC(Nc4cccc5c4C(=O)N(C4CCC(=O)NC4=O)C5=O)C3)C2)CCN1c1ccc(Nc2cc(-c3ccnc(N4CCn5c(cc6c5CC(C)(C)C6)C4=O)c3CO)cn(C)c2=O)nc1 (stereo partly drawn) [Compound 34] |
| 1 to 10 | C[C@@H]1CN(C(=O)CCOCCOCCOCCOCCCc2cccc3c2CN(C2CCC(=O)NC2=O)C3=O)CCN1c1ccc(Nc2cc(-c3ccnc(N4CCn5c(cc6c5CC(C)(C)C6)C4=O)c3CO)cn(C)c2=O)nc1 (stereo partly drawn) [Compound 54] |
| < 1 | C[C@H]1CN(C(=O)CCOCCOCCOCCOCCOCCCc2cccc3c2CN(C2CCC(=O)NC2=O)C3=O)CCN1c1ccc(Nc2cc(-c3ccnc(N4CCn5c(cc6c5CC(C)(C)C6)C4=O)c3CO)cn(C)c2=O)nc1 (stereo partly drawn) [Compound 53] |
| 10 to 1000 | Cn1cc(-c2ccnc(-n3ncc4cc(C(C)(C)C)cc(F)c4c3=O)c2CO)cc(Nc2cc3n(n2)CCN(C(=O)CCOCCCc2cccc4c2CN(C2CCC(=O)NC2=O)C4=O)C3)c1=O (stereo not drawn) [Compound 2] |
| 1 to 10 | Cn1cc(-c2ccnc(-n3ncc4cc(C(C)(C)C)cc(F)c4c3=O)c2CO)cc(Nc2cc3n(n2)CCN(CCCc2cccc4c2CN(C2CCC(=O)NC2=O)C4=O)C3)c1=O (stereo not drawn) [Compound 20] |
| 1 to 10 | C[C@H]1CN(C(=O)CCOCCOCCOCCNc2cccc3c2C(=O)N(C2CCC(=O)NC2=O)C3=O)CCN1c1ccc(Nc2cc(-c3ccnc(N4CCn5c(cc6c5CC(C)(C)C6)C4=O)c3CO)cn(C)c2=O)nc1 (stereo partly drawn) [Compound 52] |
| 1 to 10 | Cn1cc(-c2ccnc(-n3ncc4cc(C(C)(C)C)cc(F)c4c3=O)c2CO)cc(Nc2cc3n(n2)CCN(C(=O)CCOCCOCCOCCNc2cccc4c2C(=O)N(C2CCC(=O)NC2=O)C4=O)C3)c1=O (stereo not drawn) [Compound 3] |
| 1 to 10 | Cn1cc(-c2ccnc(-n3ncc4cc(C(C)(C)C)cc(F)c4c3=O)c2CO)cc(Nc2cc3n(n2)CCN(C(=O)CCOCCNc2cccc4c2C(=O)N(C2CCC(=O)NC2=O)C4=O)C3)c1=O (stereo not drawn) [Compound 1] |
| 10 to 1000 | CN[C@@H](C)C(=O)N[C@H](C(=O)N1C[C@@H](NC(=O)CCOCCOCCOCCC(=O)N2CCn3nc(Nc4cc(-c5ccnc(-n6ncc7cc(C(C)(C)C)cc(F)c7c6=O)c5CO)cn(C)c4=O)cc3C2)C[C@H]1C(=O)N[C@@H]1CCCc2ccccc21)C1CCCCC1 [Compound 5, (2S,4S)-4-(3-(2-(2-(3-(2-((2′-(6-(tert-butyl)-8-fluoro-1-oxophthalazin-2(1H)-yl)-3′-(hydroxymethyl)-1-methyl-6-oxo-1,6-dihydro-[3,4′-bipyridin]-5-yl)amino)-6,7-dihydropyrazolo[1,5-a]pyrazin-5(4H)-yl)-3-oxopropoxy)ethoxy)ethoxy)propanamido)-1-((S)-2-cyclohexyl-2-((S)-2-(methylamino)propanamido)acetyl)—N—((R)-1,2,3,4-tetrahydronaphthalen-1-yl)pyrrolidine-2-carboxamide] |
| 1 to 10 | Cn1cc(-c2ccnc(-n3ncc4cc(C(C)(C)C)cc(F)c4c3=O)c2CO)cc(Nc2cc3n(n2)CCN(C(=O)CCCCc2cccc4c2CN(C2CCC(=O)NC2=O)C4=O)C3)c1=O (stereo not drawn) [Compound 11] |
| 1 to 10 | Cn1cc(-c2ccnc(-n3ccc4cc(C5CC5)cc(F)c4c3=O)c2CO)cc(Nc2cc3n(n2)CCN(C(=O)CCOCCCc2ccc4c(c2)C(=O)N(C2CCC(=O)NC2=O)C4=O)C3)c1=O (stereo not drawn) [Compound 24] |
| 1 to 10 | C[C@@H]1CN(CCOCCOCCOCCNc2cccc3c2C(=O)N(C2CCC(=O)NC2=O)C3=O)CCN1c1ccc(Nc2cc(-c3ccnc(N4CCn5c(cc6c5CC(C)(C)C6)C4=O)c3CO)cn(C)c2=O)nc1 (stereo partly drawn) [Compound 41] |
| 1 to 10 | C[C@H]1CN(C(=O)CCOCCC(=O)Nc2cccc3c2CN(C2CCC(=O)NC2=O)C3=O)CCN1c1ccc(Nc2cc(-c3ccnc(N4CCn5c(cc6c5CC(C)(C)C6)C4=O)c3CO)cn(C)c2=O)nc1 (stereo partly drawn) [Compound 57] |
| 1 to 10 | C[C@H]1CN(C(=O)[C@H]2C[C@H](OCCCc3cccc4c3CN(C3CCC(=O)NC3=O)C4=O)C2)CCN1c1ccc(Nc2cc(-c3ccnc(N4CCn5c(cc6c5CC(C)(C)C6)C4=O)c3CO)cn(C)c2=O)nc1 (stereo partly drawn) [Compound 29] |
| 1 to 10 | Cn1cc(-c2ccnc(-n3ncc4cc(C(C)(C)C)cc(F)c4c3=O)c2CO)cc(Nc2cc3n(n2)CCN(C(=O)[C@H]2CC[C@H](Nc4cccc5c4C(=O)N(C4CCC(=O)NC4=O)C5=O)CC2)C3)c1=O (stereo partly drawn) [Compound 15] |
| 10 to 1000 | Cn1cc(-c2ccnc(-n3ncc4cc(C(C)(C)C)cc(F)c4c3=O)c2CO)cc(Nc2cc3n(n2)CCN(C(=O)[C@H]2C[C@@H](OCCCc4cccc5c4CN(C4CCC(=O)NC4=O)C5=O)C2)C3)c1=O (stereo partly drawn) [Compound 17] |
| < 1 | C[C@@H]1CN(CCOCCNc2cccc3c2C(=O)N(C2CCC(=O)NC2=O)C3=O)CCN1c1ccc(Nc2cc(-c3ccnc(N4CCn5c(cc6c5CC(C)(C)C6)C4=O)c3CO)cn(C)c2=O)nc1 (stereo partly drawn) [Compound 40] |
| 1 to 10 | C[C@H]1CN(C(=O)CCOCCOCCOCCCc2cccc3c2CN(C2CCC(=O)NC2=O)C3=O)CCN1c1ccc(Nc2cc(-c3ccnc(N4CCn5c(cc6c5CC(C)(C)C6)C4=O)c3CO)cn(C)c2=O)nc1 (stereo partly drawn) [Compound 49] |
| 1 to 10 | C[C@H]1CN(C(=O)CN2CCN(CCCc3cccc4c3C(=O)N(C3CCC(=O)NC3=O)C4=O)CC2)CCN1c1ccc(Nc2cc(-c3ccnc(N4CCn5c(cc6c5CC(C)(C)C6)C4=O)c3CO)cn(C)c2=O)nc1 (stereo partly drawn) [Compound 32] |
| 1 to 10 | Cn1cc(-c2ccnc(-n3ncc4cc(C(C)(C)C)cc(F)c4c3=O)c2CO)cc(Nc2cc3n(n2)CCN(C(=O)CCCNc2cccc4c2C(=O)N(C2CCC(=O)NC2=O)C4=O)C3)c1=O (stereo not drawn) [Compound 9] |
| 10 to 1000 | C[C@H]1CN(C(=O)CN2CCN(Cc3cccc4c3CN(C3CCC(=O)NC3=O)C4=O)CC2)CCN1c1ccc(Nc2cc(-c3ccnc(N4CCn5c(cc6c5CC(C)(C)C6)C4=O)c3CO)cn(C)c2=O)nc1 (stereo partly drawn) [Compound 27] |
| 1 to 10 | Cn1cc(-c2ccnc(-n3ncc4cc(C(C)(C)C)cc(F)c4c3=O)c2CO)cc(Nc2cc3n(n2)CCN(CCCCCCc2cccc4c2CN(C2CCC(=O)NC2=O)C4=O)C3)c1=O (stereo not drawn) [Compound 19] |
| 1 to 10 | Cn1cc(-c2ccnc(-n3ncc4cc(C(C)(C)C)cc(F)c4c3=O)c2CO)cc(Nc2cc3n(n2)CCN(C(=O)CCCN2CCN(c4cc5c(cc4F)C(=O)N(C4CCC(=O)NC4=O)C5=O)CC2)C3)c1=O (stereo not drawn) [Compound 23] |
| 1 to 10 | C[C@@H]1CN(C(=O)CCOCCOCCOCCOCCOCCNc2cccc3c2C(=O)N(C2CCC(=O)NC2=O)C3=O)CCN1c1ccc(Nc2cc(-c3ccnc(N4CCn5c(cc6c5CC(C)(C)C6)C4=O)c3CO)cn(C)c2=O)nc1 (stereo partly drawn) [Compound 50] |
| 10 to 1000 | Cn1cc(-c2ccnc(-n3ncc4cc(C(C)(C)C)cc(F)c4c3=O)c2CO)cc(Nc2cc3n(n2)CCN(C(=O)CN2CCN(CCCc4cccc5c4CN(C4CCC(=O)NC4=O)C5=O)CC2)C3)c1=O (stereo not drawn) [Compound 16] |
| 1 to 10 | C[C@H]1CN(C(=O)[C@H]2CC[C@H](Nc3cccc4c3C(=O)N(C3CCC(=O)NC3=O)C4=O)CC2)CCN1c1ccc(Nc2cc(-c3ccnc(N4CCn5c(cc6c5CC(C)(C)C6)C4=O)c3CO)cn(C)c2=O)nc1 (stereo partly drawn) [Compound 31] |
| 1 to 10 | C[C@H]1CN(C(=O)CCCNc2cccc3c2C(=O)N(C2CCC(=O)NC2=O)C3=O)CCN1c1ccc(Nc2cc(-c3ccnc(N4CCn5c(cc6c5CC(C)(C)C6)C4=O)c3CO)cn(C)c2=O)nc1 (stereo partly drawn) [Compound 37] |
